Test results: patent publication US8802597B2, “Herbicidal pyrimidines” (E I du Pont de Nemours and Company, priority 2003, dated 2014)
Read-outs that look alike come from different tables or passages of the source.

Tests used:
Format in all cases: in vivo
[1] = test system: morningglory (Ipomoea coccinea); experiment: Test C pre/postemergence; conditions: Ipomoea; for pest or weed control at 31 g/ha: 31 g ai/ha; for pest or weed control at 62 g/ha: 62 g ai/ha; for pest or weed control at 125 g/ha: 125 g ai/ha; for pest or weed control at 250 g/ha: 250 g ai/ha
Text: (§1) Seeds or nutlets of plant species selected from bermudagrass (Cynodon dactylon), Surinam grass (Brachiaria decumbens), cocklebur (Xanthium strumarium), corn (Zea mays), crabgrass (Digitaria sanguinalis), woolly cupgrass (Eriochloa villosa), giant foxtail (Setaria faberii), goosegrass (Eleusine indica), johnsongrass (Sorghum halepense), kochia (Kochia scoparia), lambsquarters (Chenopodium album), morningglory (Ipomoea coccinea), eastern black nightshade (Solanum ptycanthum), yellow nutsedge (Cyperus esculentus), pigweed (Amaranthus retroflexus), common ragweed (Ambrosia elatior), soybean (Glycine max), common (oilseed) sunflower (Helianthus annuus), and velvetleaf (Abutilon theophrasti) were planted and treated preemergence with test chemicals formulated in a non-phytotoxic solvent mixture which included a surfactant.
(§2) At the same time, plants selected from these crop and weed species and also winter barley (Hordeum vulgare), blackgrass (Alopecurus myosuroides), canarygrass (Phalaris minor), chickweed (Stellaria media), downy brome (Bromus tectorum), green foxtail (Setaria viridis), Italian ryegrass (Lolium multiflorum), wheat (Triticum aestivum), wild oat (Avena fatua) and windgrass (Apera spica-venti) were treated with postemergence applications of some of the test chemicals formulated in the same manner. Plants ranged in height from 2 to 18 cm (1- to 4-leaf stage) for postemergence treatments. Plant species in the flooded paddy test consisted of rice (Oryza sativa), umbrella sedge (Cyperus difformis), duck salad (Heteranthera limosa) and barnyardgrass (Echinochloa crus-galli) grown to the 2-leaf stage for testing. Treated plants and controls were maintained in a greenhouse for 12 to 14 days, after which time all species were compared to controls and visually evaluated. Plant response ratings, summarized in Table C, are based on a scale of 0 to 100 where 0 is no effect and 100 is complete control. A dash (-) response means no test result.

[2] = test system: pigweed (Amaranthus retroflexus); experiment: Test C pre/postemergence; conditions: Amaranthus retroflexus; for pest or weed control at 31 g/ha: 31 g ai/ha; for pest or weed control at 62 g/ha: 62 g ai/ha; for pest or weed control at 125 g/ha: 125 g ai/ha; for pest or weed control at 250 g/ha: 250 g ai/ha
Text: as §1, §2

[3] = test system: soybean (Glycine max); experiment: Test C pre/postemergence; conditions: Glycine max; for plant injury at 31 g/ha: 31 g ai/ha; for plant injury at 62 g/ha: 62 g ai/ha; for plant injury at 125 g/ha: 125 g ai/ha; for plant injury at 250 g/ha: 250 g ai/ha
Text: as §1, §2

[4] = test system: woolly cupgrass (Eriochloa villosa); experiment: Test C pre/postemergence; conditions: Eriochloa villosa; for pest or weed control at 31 g/ha: 31 g ai/ha; for pest or weed control at 62 g/ha: 62 g ai/ha; for pest or weed control at 125 g/ha: 125 g ai/ha; for pest or weed control at 250 g/ha: 250 g ai/ha
Text: as §1, §2

[5] = test system: yellow nutsedge (Cyperus esculentus); experiment: Test C pre/postemergence; conditions: Cyperus; for pest or weed control at 31 g/ha: 31 g ai/ha; for pest or weed control at 62 g/ha: 62 g ai/ha; for pest or weed control at 125 g/ha: 125 g ai/ha; for pest or weed control at 250 g/ha: 250 g ai/ha
Text: as §1, §2

[6] = test system: chickweed (Stellaria media); experiment: Test C postemergence; conditions: Stellaria media, post-emergence
In short: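 Rating scale 0–100: 0 means no effect, 100 complete control; taken visually 12 to 14 days post-treatment versus controls. Pre- and postemergence greenhouse applications, postemergence at 1- to 4-leaf stage, non-phytotoxic solvent with surfactant as carrier.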

[7] = post-emergence, Postemergence, scale 0 to 100 (0 no effect, 100 complete control), read-out: Morningglory plant response rating
[8] = pre-emergence, Preemergence, scale 0 to 100, 0 no effect, 100 complete control, read-out: Plant response rating, Morningglory
[9] = pre-emergence, Preemergence, scale 0 to 100, read-out: Plant response rating, Morningglory
[10] = post-emergence, Postemergence, scale 0 to 100 (0 no effect, 100 complete control), read-out: Pigweed plant response rating
[11] = pre-emergence, Preemergence, scale 0 to 100, 0 no effect, 100 complete control, read-out: Plant response rating, Pigweed
[12] = pre-emergence, Preemergence, scale 0 to 100, read-out: Plant response rating, Pigweed
[13] = post-emergence, Postemergence, scale 0 to 100 (0 no effect, 100 complete control), read-out: Soybean plant response rating
[14] = pre-emergence, Preemergence, scale 0 to 100, 0 no effect, 100 complete control, read-out: Plant response rating, Soybean
[15] = pre-emergence, Preemergence, scale 0 to 100, read-out: Plant response rating, Soybean
[16] = post-emergence, Postemergence, scale 0 to 100 (0 no effect, 100 complete control), read-out: Cupgrass, Woolly plant response rating
[17] = pre-emergence, Preemergence, scale 0 to 100, 0 no effect, 100 complete control, read-out: Plant response rating, Cupgrass, Woolly
[18] = pre-emergence, Preemergence, scale 0 to 100, read-out: Plant response rating, Cupgrass, Woolly
[19] = post-emergence, Postemergence, scale 0 to 100 (0 no effect, 100 complete control), read-out: Nutsedge, Yellow plant response rating
[20] = pre-emergence, Preemergence, scale 0 to 100, 0 no effect, 100 complete control, read-out: Plant response rating, Nutsedge, Yellow
[21] = pre-emergence, Preemergence, scale 0 to 100, read-out: Plant response rating, Nutsedge, Yellow

In the case of `COC(=O)c1nc(C2CC2)nc(N)c1Cl` [Compound 9, methyl 6-amino-5-chloro-2-cyclopropyl-4-pyrimidinecarboxylate], the pest or weed control at 31 g/ha ([1]; post-emergence, Postemergence, read-out: Plant response rating (scale of 0 to 100), Morningglory) is reported as 90%, the pest or weed control at 62 g/ha [1, 7] is reported as 95% and the pest or weed control at 125 g/ha [1, 7] is reported as 100%. The pest or weed control at 250 g/ha ([1]; post-emergence, Postemergence, scale 0 to 100, read-out: Plant response rating, Morningglory) was 100%, the pest or weed control at 31 g/ha [1, 8] was 100% and the pest or weed control at 62 g/ha [1, 8] was 100%. It also gave a pest or weed control at 125 g/ha [1, 9] of 100%, a pest or weed control at 250 g/ha [1, 9] of 100% and a pest or weed control at 31 g/ha ([2]; post-emergence, Postemergence, read-out: Plant response rating (scale of 0 to 100), Pigweed) of 55%. The pest or weed control at 62 g/ha [2, 10] was 70%, the pest or weed control at 125 g/ha [2, 10] was 100% and the pest or weed control at 250 g/ha ([2]; post-emergence, Postemergence, scale 0 to 100, read-out: Plant response rating, Pigweed) was 100%. For the same molecule, the pest or weed control at 31 g/ha [2, 11] was 95%, the pest or weed control at 62 g/ha [2, 11] was 95% and the pest or weed control at 125 g/ha [2, 12] was 100%. The pest or weed control at 250 g/ha [2, 12] was 100%, the plant injury at 31 g/ha ([3]; post-emergence, Postemergence, read-out: Plant response rating (scale of 0 to 100), Soybean) was 95% and the plant injury at 62 g/ha [3, 13] was 100%. The plant injury at 125 g/ha [3, 13] was 100%, the plant injury at 250 g/ha ([3]; post-emergence, Postemergence, scale 0 to 100, read-out: Plant response rating, Soybean) was 100% and the plant injury at 31 g/ha [3, 14] was 100%. The plant injury at 62 g/ha [3, 14] was 100%, the plant injury at 125 g/ha [3, 15] was 100% and the plant injury at 250 g/ha [3, 15] was 100%. It also gave a pest or weed control at 31 g/ha ([4]; post-emergence, Postemergence, read-out: Plant response rating (scale of 0 to 100), Cupgrass, Woolly) of 40%, a pest or weed control at 62 g/ha [4, 16] of 60% and a pest or weed control at 125 g/ha [4, 16] of 70%. The pest or weed control at 250 g/ha ([4]; post-emergence, Postemergence, scale 0 to 100, read-out: Plant response rating, Cupgrass, Woolly) was 85%, the pest or weed control at 31 g/ha [4, 17] was 0% and the pest or weed control at 62 g/ha [4, 17] was 90%. It also gave a pest or weed control at 125 g/ha [4, 18] of 95%, a pest or weed control at 250 g/ha [4, 18] of 100% and a pest or weed control at 31 g/ha ([5]; post-emergence, Postemergence, read-out: Plant response rating (scale of 0 to 100), Nutsedge, Yellow) of 0%. For the same molecule, the pest or weed control at 62 g/ha [5, 19] was 0%, the pest or weed control at 125 g/ha [5, 19] was 0% and the pest or weed control at 250 g/ha ([5]; post-emergence, Postemergence, scale 0 to 100, read-out: Plant response rating, Nutsedge, Yellow) was 0%. It also gave a pest or weed control at 31 g/ha [5, 20] of 20%, a pest or weed control at 62 g/ha [5, 20] of 100% and a pest or weed control at 125 g/ha [5, 21] of 100%. For the same molecule, the pest or weed control at 250 g/ha [5, 21] was 100%, the pest or weed control at 31 g/ha ([6]; 31 g ai/ha, read-out: Plant response rating (scale of 0 to 100), Chickweed) was 15% and the pest or weed control at 62 g/ha ([6]; 62 g ai/ha, scale 0 to 100 (0 no effect, 100 complete control), read-out: Chickweed plant response rating) was 85%. For the same molecule, the pest or weed control at 125 g/ha ([6]; 125 g ai/ha, scale 0 to 100, read-out: Plant response rating, Chickweed) was 100% and the pest or weed control at 250 g/ha ([6]; 250 g ai/ha, scale 0 to 100, read-out: Plant response rating, Chickweed) was 100%.
